Legend:
Assay type in all cases: cell-based
IL-1β = test: Inhibition of IL-1β secretion in LPS stimulated peripheral blood mononuclear cells; settings: PBMC; LPS stimulated human peripheral blood mononuclear cells, 18 hours, ELISA; read-out: The median inhibition concentration (IC50, nM) of IL-1β
Procedure: (§1) To study the effect of the compound of the present invention in vitro the inhibition of the IL-1β and TNF-α secretion was measured using the following procedure:
(§2) Cytokine production was measured in the media from lipopolysaccharide (LPS) stimulated peripheral blood mononuclear cells. The mononuclear cells were isolated from human. peripheral blood by Lymphoprep® (Nycomed, Norway) fractionation and suspended in RPMI 1640 (growth medium) with foetal calv serum (FCS, 2%), at a concentration of 5×10^5 cells/ml. The cells were incubated in 24-well tissue culture plates in 1 ml aliquots. Test compounds were dissolved in dimethylsulfoxide (DMSO, 10 mM) and were diluted with the medium. Compounds were added to the cells for 30 minutes, then LPS ([…] final concentration) was added. The plates were incubated for 18 hours, and the concentration of IL-1β and TNF-α in the medium was determined by enzyme-linked immunosorbent assays. The median inhibitory concentrations (IC50) of the compounds were calculated.

TNF-α = test: Inhibition of TNF-α secretion in LPS stimulated peripheral blood mononuclear cells; settings: PBMC; LPS stimulated human peripheral blood mononuclear cells, 18 hours, ELISA; read-out: The median inhibition concentration (IC50, nM) of TNF-α
Procedure: as §1, §2

PMN-superoxide = test: Inhibition of PMN superoxide secretion (ferricytochrome C reduction); settings: human PMN granulocytes primed with TNF-α, stimulated with fMLP; read-out: The median inhibition concentration (IC50, nM) of PMN-superoxide
Procedure: The compounds of the present invention also show similar activities in the ability to inhibit PMN (polymorphonuclear) superoxide secretion which is also indicative of potentially useful anti-inflammatory drugs The compounds were tested using the following procedure:
Human polymorphonuclear (PMN) granulocytes were Isolated from human blood by dextran sedimentation, Lymphoprep® fractionation and hypotonic lysis of contaminating erythrocytes.
Superoxide anion generation was measured as the superoxide dismutase inhibitable reduction of ferricytochrome C (Madhu, S. B. et al, Inflammation, 16 241, (1992)). The cells were suspended in Hanks' balanced salt solution, and incubated for 10 minutes at 37° C. with test compounds. The cells were primed by the addition of TNF-α (3 ng/ml final concentration) for 10 minutes, and then ferricytochrome C, (final concentration 750 μg/ml), bovine serum albumin (BSA, final concentration 1 mg/ml) and formyl-methionyl-leucyl-phenylalanine (fMLP, final concentration 10^−7 M) were added for 3 minutes. The cells were chilled on ice, and were spun down. The optical densities in the cell-free supernatant was measured in a spectrophotometer. The median Inhibitory concentration (IC50) of the compounds was calculated.

Row | Structure (SMILES) | IC50 (IL-1β) | IC50 (TNF-α) | IC50 (PMN-superoxide)
1 | Cc1ccccc1C(=O)c1ccc(Nc2ccccc2NC(=O)NC2CCCCC2)cc1Cl [Compound 101, 1-Cyclohexyl-3-[2-[3-chloro-4-(2-methylbenzoyl)-phenylamino]phenyl]urea] | 13 nM | 5 nM | 4 nM
2 | CCNC(=O)Nc1ccccc1Nc1ccc(C(=O)c2ccccc2C)c(Cl)c1 [Compound 102, 1-Ethyl-3-[2-[3-chloro-4-(2-methylbenzoyl)-phenylamino]phenyl]urea] | 22 nM | 2.2 nM | 13 nM
3 | CCNC(=O)Nc1cc(F)ccc1Nc1ccc(C(=O)c2ccccc2C)c(Cl)c1 [Compound 114, 1-Ethyl-3-[2-[3-chloro-4-(2-methylbenzoyl)-phenylamino]-5-fluoro-phenyl]urea] | 7.9 nM | 3.2 nM | 4 nM
4 | CCNC(=O)Nc1ccccc1Nc1ccc(C(=O)c2ccccc2)cc1 [ref. b), 1-Ethyl-3-[2-(4-benzoyl-phenylamino)phenyl]urea, reference compound] | > 1000 nM | 631 nM | 316 nM

— patent US6750253B1, “Aminobenzophenones as inhibitors of il-1β and tnf-α” (Leo Pharmaceutical Products Ltd. A/S, priority 1999, dated 2004)
